The subject of assay [1] is NPC1- or NPC2-deficient cell lines. Nature of the assay: Cholesterol esterification by ACAT (BODIPY-C12). The assay is classed as cell-based, human. To be noted: S58-035 at 10 μg/mL. The protocol:
FIG. 12 A, B. Charts showing cholesterol esterification by ACAT. Cyclodextrin effects on cholesterol esterification in NPC1 (A) and NPC2 (B) mutant cells. Cells were treated for 1 hour with 3 mM MβCD or HPβCD and then allowed to recover in growth medium for 16 hours. Cells were then incubated with 3 μM 4,4-difluoro-4-bora-3a,4a-diaza-s-indacene-dodecanoic acid (BODIPY-C12) for 6 hours. The ratio of cholesteryl-BODIPY-C12 ester (CE)/BODIPY-C12 acid (FA) after TLC separation was measured and normalized to the average control value. ACAT inhibitor S58-035 was added, where indicated, at 10 μg/mL. For NPC1-defective cells, the average ratio was 0.110±0.007, which corresponded to 3.73±0.22 fmol CE formed per μg cell protein during 6 hours. Corresponding values for NPC2-defective cells were 0.089±0.003 and 2.50±0.24 fmol/μg.
To measure cholesterol levels within the endoplasmic reticulum in response to brief CD treatments, cholesterol esterification was measured by ACAT (FIG. 12). Increased esterification of cholesterol was observed several hours after a short (1-hour) CD treatment of NPC1- or NPC2-deficient cell lines. […] Corresponding reductions in cholesterol accumulation upon MβCD treatment, as measured by the LSO filipin assay, are shown in FIG. 13.

The test system of another assay is NPC1 fibroblast GM03123. Nature of the assay: HDAC inhibitor dose and time dependence on LSO cholesterol. The assay is classed as cell-based, human. From the text: FIG. 19. Plots showing the dose and time dependence for each of the studied HDACi compounds as a function of time on NPC1 fibroblast GM03123.
Dose and time dependence for each of the studied HDACi compounds as a function of time on NPC1 fibroblast GM03123 are shown in the plots of FIG. 19. Each data point in the plot is representative of a total of 32 images from two independent experiments. The SD for DMSO is 0.07, error bar=SE. The dotted line represents the DMSO control.

Assay [2] concerns NPC1 human fibroblast GM18453; NPC2 human fibroblast GM18445. Nature of the assay: HDAC inhibitor effect on LSO cholesterol, 48-hour treatment. The assay is classed as cell-based. Particulars: 37 nM. The protocol: Cells were treated in complete medium for two days (48 hours). The dashed horizontal line is 3SD below the mean for untreated cells. (A) results for NPC1 human fibroblast GM18453, (B) results for NPC2 human fibroblast GM18445.
Each data point in the plot is representative of a total of 32 images from two independent experiments. The standard deviation (SD) for DMSO is 0.07, error bar=SE. The dotted line represents the DMSO control.

A further assay relates to human NPC1 cells. Nature of the assay: Removal of cholesterol from LSOs by filipin staining and digital image analysis.
In another assay the test system is GM03123 (NPC1) cells. The assay can be described thus: LSO filipin assay of cholesterol accumulation, NPC1 mutant fibroblasts. The class given is cell-based, human. How it is done: (§1) FIGS. 5 A-D. Charts showing quantification of CD effects on cholesterol accumulation in NPC1 and NPC2 mutant cells. The filipin fluorescence in LSOs was measured in NPC1 (A and B) and NPC2 (C and D) mutant cells treated with either MβCD (A and C) or HPβCD (B and D) for 1-4 days.
(§2) FIG. 6. Chart comparing cholesterol accumulation as measured by the LSO assay in NPC1-defective, NPC2-defective, and apparently normal human fibroblasts. […] At the end of the experiment, cells were fixed with 1% PFA and stained with 50 μg/mL filipin. Images were acquired using an ImageXpress MICRO imaging system with a 10× objective. Quantification of filipin labeling of the LSOs was performed as described previously (Pipalia N H, Huang A, Ralph H, Rujoi M, Maxfield FR (2006) Automated microscopy screening for compounds that partially revert cholesterol accumulation in Niemann-Pick C cells. J. Lipid Res. 47:284-301).

A further assay relates to GM18455 (NPC2) cells. Nature of the assay: LSO filipin assay of cholesterol accumulation, NPC2 mutant fibroblasts. The assay is classed as cell-based, human. How it is done:
as §1, §2

The test system of a further assay is NPC mutant cells. Nature of the assay: BMP accumulation by anti-BMP immunofluorescence. The assay is classed as cell-based, human. Particulars: 0.9 mM CD for ≈1 day (FIG. 15). The protocol:
FIGS. 15 A-C. CD effects on BMP accumulation in NPC mutant cells. BMP levels were quantified using fluorescence microscopy from images obtained with a 20× objective of cells stained with anti-BMP antibody and AlexaFluor488-conjugated secondary antibody in NPC1 (A), NPC2 (B) mutant, and 1 μM U18666A-treated normal (C) cells. Cells were incubated with 0.9 mM CD for ≈1 day.

Assay [3] concerns NPC1 and NPC2 mutant cells. Nature of the assay: LSO filipin staining after cyclodextrin treatment, withdrawal and acute treatment. The assay is classed as cell-based, human. To be noted: for cholesterol accumulation detected by filipin labeling: 300 μM CD for 1 day (FIG. 4); for LSO values one more day after CD removal versus fixed immediately / LSO cholesterol accumulation after three days without extracellular CD: 1 day treatment; for LSO values one more day after CD removal versus fixed immediately: then 1 day in growth medium without CD; for LSO cholesterol accumulation after three days without extracellular CD: then three days in serum containing medium; for level to which LSO cholesterol accumulation is reduced: low micromolar concentrations, 1-4 days (FIG. 5). How it is done:
FIG. 4. Micrographs showing the effect of CDs on cholesterol accumulation in NPC1- and NPC2-deficient cells. (A) Background and shading corrected images of untreated (a and b), MβCD-treated (c and d), or HPβCD-treated (e and f) GM03123 NPC1 cells (a, c, and e) or GM18455 NPC2 (b, d, and f) mutant cells. NPC mutant cells were treated with 300 μMCD for 1 day. (B) Untreated, apparently normal GM05659 cells, shown for comparison. (Scale bars, 100 μm.)
FIGS. 8 A-D. Charts showing persistence of CD effects after treatment. NPC1 (A and B) and NPC2 (C and D) treated with various concentrations of MβCD (A and C) and HPβCD (B and D) for 1 day and then fixed (0 days after 24 h treatment), or rinsed extensively, and allowed to grow in normal growth medium for up to three additional days after CD removal. Quantification of LSO filipin fluorescence power is shown.
FIG. 9 A, B. Filipin micrographs showing acute cyclodextrin effects on cholesterol accumulation in NPC1- and NPC2-deficient cells. Background and shading corrected images of untreated control (panels a-c), 0 h after treatment (panels d-f), or 24 h after treatment (panels g-i) for NPC1 (A) or NPC2 (B) mutant cells were obtained as in FIG. 6. […] (Scale bars, 100 μm.)
FIGS. 10 A-D. Short-term MβCD treatment. […] Cells were either fixed immediately or rinsed extensively and returned to growth medium for 24 hours. Quantification of LSO filipin fluorescence power is shown (A and C). Numeric data represent averages±SEM of three independent experiments normalized to control (untreated) average value for each experiment. *P<0.0001 vs. control (n=12, where n is total number of wells used for quantification). Filipin images of NPC1 (B) or NPC2 (D) mutant cells treated with MβCD/cholesterol are shown. (Scale bars, 100 μm.)
To determine whether the CD-mediated decrease in cholesterol accumulation would be sustained after the compound has been removed from the culture medium, NPC1 and NPC2 mutant cells were treated for 1 day with varying concentrations of MβCD or HPβCD (FIG. 8). The cells were then washed extensively to remove the compounds and returned to growth medium for up to three days.
To determine whether the reduction of free cholesterol in LSOs of NPC-defective cells resulted from extraction of cholesterol by CD from the PM or from inside the LSOs, this experiment acutely treated cells for one hour with MβCD in medium without serum (to extract cholesterol from the PM), MβCD in medium plus 10% FBS (to exchange cholesterol between serum lipoproteins and the PM (V. M. Atger, et al. (1997), J. Clin. Invest., 99:773-780)), or MβCD loaded with cholesterol (≈5:1 (MβCD/cholesterol) ratio) to overload cells with cholesterol.

Assay [4] has as its system U18666A-treated GM05659 cells.
Description: (§3) Cells were plated in 384-well assay plates at a density to produce ≈80-90% confluency by experiment completion and treated with U18666A at indicated concentrations for 24 hour before addition of various concentrations of either MβCD or HPβCD for another 24 hours, during which indicated U18666A levels were maintained. At the end of the experiment, cells were fixed with 1% PFA and stained with 50 μg/mL filipin. Images were acquired using an ImageXpressMICRO imaging system with a 10× objective. […] (A) Cholesterol accumulation, as measured by the LSO filipin assay, at different concentrations of U18666A. MβCD (B) and HPβCD (C) LSO filipin dose-response curves at three different U18666A concentrations. […] Data represent averages±SEM of two independent experiments (n=12 for control and n=6 for treated, where n is total number of wells per condition used for quantification).
Assay [5] has as its system NPC1- or NPC2-deficient cell lines. Particulars: literature study, cultured NPC1- and NPC2-deficient cells; cited from earlier work.
A further assay deals with npc1−/− mice. Particulars: cited from earlier work.
Assay [6] deals with U18666A-treated GM05659 cells. The assay can be described thus: LSO filipin assay in U18666A-treated apparently normal fibroblasts. To be noted: read-out: EC50 (μM), 50% reduction in LSO filipin, cyclodextrin 1 day.
Description: as §3
Setting [7] is: read-out: EC50 (μM), 50% reduction in LSO filipin, 1 day of treatment.
Setting [8] is: read-out: EC50 (μM), 50% reduction in LSO filipin, 2 days of treatment.
The mark [9] stands for this setting: read-out: EC50 (μM), 50% reduction in LSO filipin, 3 days of treatment.
[10] abbreviates: read-out: EC50 (μM), 50% reduction in LSO filipin, 4 days of treatment.

Read-outs that look alike come from different tables or passages of the source.

Description for human NPC1 cells: Graph showing the concentration and time dependence of the removal of cholesterol from LSOs of human NPC1 cells incubated with the indicated concentrations of MβCD in complete medium for 1-4 days.
Graph showing concentration of cholesterol from LSOs of NPC1 cells incubated with 0.33 mM MβCD for one hour under various conditions (i.e., no FBS, 10% FBS, and cholesterol-loaded MβCD (i.e., “MbCD/cholest.”), and these with either no chase or a 24 hour chase). At the end of the incubation, cells were rinsed thoroughly, and returned to complete medium for 24 hours.
Graph comparing the cholesterol-lowering ability of MβCD and a MβCD-dextran composition of the instant invention. Human NPC1 cells were incubated with MβCD (●) or Dextran-PEG-MbCD (O) for 39 hours. The polymers had about two MβCDs per polymer, and the concentration is the MβCD concentration.
(A) Cells were treated for 2 days with 50 μM MβCD or 50 μM MβCD conjugated to dextran fixed with paraformaldehyde, stained, and imaged. Cholesterol accumulation in LSOs was measured by quantifying filipin fluorescence. Data represent averages±SEM of one representative experiment (n=8, where n is total number of wells per condition used for quantification).
In this experiment, studies were conducted to determine the effects of MβCD on NPC1 and NPC2 cells. […] The cells were then rinsed and incubated in complete medium for 24 hours. […] To further emphasize this, the one-hour loading pulse was conducted with cholesterol-loaded MβCD, which would actually increase the cellular cholesterol during the loading period.

Consider `CCCCCCCCCC[Si](C)(C)CCC(=O)NC(Cc1ccc(C)cc1)c1ccccc1` (centres unmarked) [S58-035], for which, in assay [1], the “effect on CD-induced increase in cholesterol esterification” value is reported as “inhibited”.
As to `O=C(CCCCCCC(=O)Nc1ccccc1)NO` [SAHA, suberoylanilide hydroxamic acid], the “reduction of cholesterol in the LSOs” value in the assay with NPC1 fibroblast GM03123 is “somewhat effective”; in the assay with NPC1 fibroblast GM03123 (10 μM, other experiments (not shown)), “much more effective”.
For the compound `CC(/C=C/C(=O)NO)=C\[C@@H](C)C(=O)c1ccc(N(C)C)cc1` [trichostatin A], in assay [2], the “reduction of cholesterol in the LSOs” value is reported as “significantly effective”.
Take “MβCD-NH-(PEG)3-CONH-aminodextran [MβCD-dextran]”: the “reversal of cholesterol accumulation in LSOs (filipin)” value with human NPC1 cells (50 μM MβCD conjugated to dextran, 2 days (FIG. 11A)) is recorded as “can also reverse cholesterol accumulation”. In the assay on human NPC1 cells (39 hours, about two MβCDs per polymer (FIG. 3)), the “cholesterol-lowering in LSOs” value is “significant effect”.
As to hydroxypropyl-βCD [HPβCD], the EC50 came out at 3.16 µM with GM03123 (NPC1) cells (setting [7]); 3.77 µM in the assay with GM03123 (NPC1) cells (setting [8]); 4.18 µM with GM03123 (NPC1) cells (setting [9]); 5.44 µM in the assay with GM03123 (NPC1) cells (setting [10]); 272 µM with GM18455 (NPC2) cells (setting [7]); 20.8 µM in the assay on GM18455 (NPC2) cells (setting [8]). The EC50 in the assay on GM18455 (NPC2) cells (setting [9]) was determined as 16.9 µM; in the assay with GM18455 (NPC2) cells (setting [10]) it was 11.5 µM; in assay [4], 17.4 µM; in assay [6] (U18666A 1,000 nM), 185 µM; in assay [6] (U18666A […]), 69.9 µM. In addition, in the assay with NPC mutant cells, the BMP accumulation result is on record as “significantly reduced BMP accumulation”. Further, the “cholesterol accumulation detected by filipin labeling” value in assay [3] was “reduced cholesterol accumulation”. For the same compound, the “LSO values one more day after CD removal versus fixed immediately” value in assay [3] was “further decrease in LSO values”. Moreover, in [3], the “LSO cholesterol accumulation after three days without extracellular CD” value was “significant reduction”. In assay [3], the “level to which LSO cholesterol accumulation is reduced” value is “near-normal levels”. The “ACAT-mediated esterification of cholesterol” value in assay [5] was “increased ACAT-mediated esterification of cholesterol”. Also, the glycosphingolipid storage result with npc1−/− mice (repeated injections) is on record as “clearance of various glycosphingolipids”. For the same compound, the values for the lifespan result in the assay on npc1−/− mice (repeated injections) and with npc1−/− mice (single injections) were “further prolongation of lifespan” and “can extend their lifespan”, respectively. Besides, in the assay with human NPC1 cells (relative to MβCD), the “times higher concentrations required to achieve the same effect as MβCD” value is 3-5 times.
Turning to methyl β-cyclodextrin [MβCD], the EC50 in the assay with GM03123 (NPC1) cells (setting [7]) was 2.22 µM; with GM03123 (NPC1) cells (setting [8]), 1.1 µM; in the assay on GM03123 (NPC1) cells (setting [9]) it was 0.98 µM; with GM03123 (NPC1) cells (setting [10]), 1.08 µM; with GM18455 (NPC2) cells (setting [7]) it was 40.4 µM; in the assay on GM18455 (NPC2) cells (setting [8]) it was 3.19 µM. Moreover, the EC50 in the assay on GM18455 (NPC2) cells (setting [9]) is 2.8 µM; in the assay on GM18455 (NPC2) cells (setting [10]), 1.69 µM; in assay [4] it was 6.2 µM; in [6] (U18666A 1,000 nM) it was 48.1 µM; in [6] (U18666A […]), 18.9 µM; in the assay with human NPC1 cells (read-out: concentration giving half-maximal effect on removal of cholesterol from LSOs, complete medium, 1-4 days (FIG. 1)), 2 to 3 µM. Besides, the BMP accumulation result with NPC mutant cells is “significantly reduced BMP accumulation”. Besides, the “cholesterol accumulation detected by filipin labeling” value in assay [3] is given as “reduced cholesterol accumulation”. For the same compound, the “LSO values one more day after CD removal versus fixed immediately” value in assay [3] was “further decrease in LSO values”. In addition, the “LSO cholesterol accumulation after three days without extracellular CD” value in assay [3] is on record as “significant reduction”. In addition, the “level to which LSO cholesterol accumulation is reduced” value in [3] is “near-normal levels”. The “concentration giving effects equivalent to those of HPβCD” value in [3] (relative to HPβCD) is listed as “approximately three-fold lower concentrations”. Also, in the assay on human NPC1 cells (1 hour pulse, 0.33 mM, then 24 hours in complete medium), the “cholesterol in LSOs after 24 hr chase” value was “significant reduction”. The “time for the effect to reach steady state” value in the assay with human NPC1 cells (FIG. 1) is reported as “about 2 days”.

These data come from patent publication US10124019B2, “Compositions and their use for removing cholesterol” (Cornell University, priority 2009, dated 2018).
